Test results from ChEMBL document CHEMBL1136570, “Synthesis and dopamine transporter affinity of chiral 1-[2-[bis(4-fluorophenyl)methoxy]ethyl]-4-(2-hydroxypropyl)piperazines as potential cocaine abuse therapeutic agents” (Bioorg Med Chem Lett, 2003).

Experiments:
[1] = target: Monoamine transporters; serotonin & dopamine (Rattus norvegicus) (UniProt P31652+P23977); experiment: Selectivity expressed as ratio of affinity for SERT/DAT; type: protein assay
[2] = target: Sodium-dependent serotonin transporter (Rattus norvegicus, UniProt P31652); experiment: Binding affinity for serotonin transporter (SERT)
[3] = target: Sodium-dependent dopamine transporter (Rattus norvegicus, UniProt P23977); experiment: Binding affinity for dopamine transporter (DAT)
Sequence of Sodium-dependent dopamine transporter (P23977 whole entry): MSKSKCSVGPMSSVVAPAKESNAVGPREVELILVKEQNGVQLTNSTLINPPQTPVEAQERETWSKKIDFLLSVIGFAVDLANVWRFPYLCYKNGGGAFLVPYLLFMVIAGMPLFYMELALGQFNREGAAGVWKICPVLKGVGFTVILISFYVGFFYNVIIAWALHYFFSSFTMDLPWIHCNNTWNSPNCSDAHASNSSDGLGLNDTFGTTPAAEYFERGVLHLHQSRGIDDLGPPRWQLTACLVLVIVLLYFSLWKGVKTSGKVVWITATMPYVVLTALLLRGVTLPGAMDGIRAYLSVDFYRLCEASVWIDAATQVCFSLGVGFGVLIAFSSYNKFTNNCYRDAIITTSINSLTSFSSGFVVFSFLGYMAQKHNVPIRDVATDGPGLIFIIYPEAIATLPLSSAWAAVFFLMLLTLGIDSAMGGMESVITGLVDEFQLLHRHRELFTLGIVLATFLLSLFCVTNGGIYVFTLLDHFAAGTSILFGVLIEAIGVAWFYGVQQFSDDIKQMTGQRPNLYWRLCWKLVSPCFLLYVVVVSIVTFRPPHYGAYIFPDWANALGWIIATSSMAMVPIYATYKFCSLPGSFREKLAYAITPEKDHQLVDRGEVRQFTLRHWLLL

Sequence of Monoamine transporters; serotonin & dopamine (Rattus norvegicus) (P23977 whole entry, looked up): as the sequence (P23977 whole entry) above
Sequence of Monoamine transporters; serotonin & dopamine (Rattus norvegicus) (P31652 whole entry, looked up): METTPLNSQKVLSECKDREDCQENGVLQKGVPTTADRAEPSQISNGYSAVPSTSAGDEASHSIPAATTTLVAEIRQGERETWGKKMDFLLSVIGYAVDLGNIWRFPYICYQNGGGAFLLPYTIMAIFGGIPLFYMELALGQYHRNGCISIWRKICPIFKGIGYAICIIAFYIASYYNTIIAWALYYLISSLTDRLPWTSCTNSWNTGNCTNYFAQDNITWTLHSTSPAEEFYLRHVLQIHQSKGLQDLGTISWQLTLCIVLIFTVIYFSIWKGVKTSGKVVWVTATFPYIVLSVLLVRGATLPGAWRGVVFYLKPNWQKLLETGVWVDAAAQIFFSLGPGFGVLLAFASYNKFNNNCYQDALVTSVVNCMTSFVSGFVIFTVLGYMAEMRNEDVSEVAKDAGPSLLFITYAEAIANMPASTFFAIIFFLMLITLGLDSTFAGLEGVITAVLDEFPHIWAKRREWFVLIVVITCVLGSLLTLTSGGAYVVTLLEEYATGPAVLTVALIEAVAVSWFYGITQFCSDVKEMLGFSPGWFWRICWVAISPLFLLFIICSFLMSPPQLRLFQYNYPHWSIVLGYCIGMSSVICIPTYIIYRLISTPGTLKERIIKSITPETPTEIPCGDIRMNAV
Sequence of Sodium-dependent serotonin transporter (P31652 whole entry): as the sequence (P31652 whole entry, looked up) above

SMILES | Ratio [1] | Ki [2] [nM] | Ki [3] [nM]
O[C@@H](Cc1ccccc1)CN1CCN(CCOC(c2ccc(F)cc2)c2ccc(F)cc2)CC1 | 307 |  | 
C[C@@H](O)CN1CCN(CCOC(c2ccccc2)c2ccccc2)CC1 | 293 | 12900 | 44
C[C@](O)(CN1CCN(CCOC(c2ccc(F)cc2)c2ccc(F)cc2)CC1)c1ccccc1 | 4 | 520 | 140
OC(Cc1ccccc1)CN1CCN(CCOC(c2ccc(F)cc2)c2ccc(F)cc2)CC1 (racemic) | 54 |  | 
CCCN1CCN(CCOC(c2ccc(F)cc2)c2ccc(F)cc2)CC1 | 22 | 888 | 40
CC(O)(CN1CCN(CCOC(c2ccc(F)cc2)c2ccc(F)cc2)CC1)c1ccccc1 (racemic) | 15 | 298 | 20
C[C@@H](O)CN1CCN(CCOC(c2ccc(F)cc2)c2ccc(F)cc2)CC1 | 8 | 588 | 76
CCN1CCN(CCOC(c2ccc(F)cc2)c2ccc(F)cc2)CC1 | 61 | 2090 | 34
C[C@@H](O)[C@H](c1ccccc1)N1CCN(CCOC(c2ccc(F)cc2)c2ccc(F)cc2)CC1 | 43 | 565 | 13
C[C@@](O)(CN1CCN(CCOC(c2ccc(F)cc2)c2ccc(F)cc2)CC1)c1ccccc1 | 50 | 281 | 5.6
C[C@H](O)CN1CCN(CCOC(c2ccccc2)c2ccccc2)CC1 | 217 | 10400 | 48
O[C@@H](Cc1ccccc1)CN1CCN(CCOC(c2ccccc2)c2ccccc2)CC1 | 939 |  | 
C[C@H](O)[C@@H](c1ccccc1)N1CCN(CCOC(c2ccc(F)cc2)c2ccc(F)cc2)CC1 | 16 | 583 | 36
O[C@H](Cc1ccccc1)CN1CCN(CCOC(c2ccccc2)c2ccccc2)CC1 | 73 |  | 
C[C@H](O)CN1CCN(CCOC(c2ccc(F)cc2)c2ccc(F)cc2)CC1 | 43 | 981 | 23
C=CCN1CCN(CCOC(c2ccc(F)cc2)c2ccc(F)cc2)CC1 | 25 | 1650 | 65
O[C@H](Cc1ccccc1)CN1CCN(CCOC(c2ccc(F)cc2)c2ccc(F)cc2)CC1 | 14 |  | 
